Assays:
[1] = target: T1, Recombinant STAT3 protein (STAT3(G127-I722)) (Homo sapiens, UniProt P40763); test: STAT3 Fluorescence Polarization (FP) Assay; format: binding; conditions: STAT3(G127-I722) 25 nM, probe 5-FAM-GpYLPQTV-NH2 2 nM, 45-minute incubation
T1 construct: STAT3(G127-I722)
Outline: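 Serially diluted compounds (1% DMSO) were mixed with 2 nM fluorescent phosphotyrosine peptide and 25 nM STAT3 construct G127-I722, pH 7.4, incubated 45 min at room temperature. IC50 values from fitted polarization curves are reported as categories A (≤100 nM), B, C, D (>10 μM).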

[2] = target: T2, Recombinant STAT6 protein (STAT6(W123-T658)) (Homo sapiens, UniProt P42226); test: STAT6 Fluorescence Polarization (FP) Assay; format: binding; conditions: STAT6(W123-T658) 250 nM, probe 5-FAM-ApYKPFQDLI-NH2 2 nM, 45-minute incubation
T2 construct: STAT6(W123-T658)
T2 sequence (P42226 123-658): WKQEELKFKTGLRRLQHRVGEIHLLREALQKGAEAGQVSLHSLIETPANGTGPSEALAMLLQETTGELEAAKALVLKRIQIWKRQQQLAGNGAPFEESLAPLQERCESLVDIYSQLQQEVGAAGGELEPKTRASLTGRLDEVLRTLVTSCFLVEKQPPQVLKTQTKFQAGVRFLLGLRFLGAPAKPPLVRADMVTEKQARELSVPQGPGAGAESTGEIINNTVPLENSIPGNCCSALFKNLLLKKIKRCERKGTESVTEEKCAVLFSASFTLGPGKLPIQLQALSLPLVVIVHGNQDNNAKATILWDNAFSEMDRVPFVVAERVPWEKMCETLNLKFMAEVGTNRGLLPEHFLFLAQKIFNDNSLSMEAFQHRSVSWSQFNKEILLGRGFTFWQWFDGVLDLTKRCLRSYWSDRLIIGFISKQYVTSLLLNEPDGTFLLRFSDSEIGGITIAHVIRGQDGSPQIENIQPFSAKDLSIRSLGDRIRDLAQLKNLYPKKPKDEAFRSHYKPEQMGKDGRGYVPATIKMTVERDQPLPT
Outline: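 Competitive displacement of a fluorescent phosphotyrosine peptide (2 nM) from recombinant STAT6 W123-T658 (250 nM), 45 min at room temperature in 10 mM HEPES pH 7.4, 50 mM NaCl, 2 mM DTT. mP fitted against log compound for IC50, grouped A (≤300 nM) to D (>30 μM).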

T1 sequence (P40763 127-722, species assumed): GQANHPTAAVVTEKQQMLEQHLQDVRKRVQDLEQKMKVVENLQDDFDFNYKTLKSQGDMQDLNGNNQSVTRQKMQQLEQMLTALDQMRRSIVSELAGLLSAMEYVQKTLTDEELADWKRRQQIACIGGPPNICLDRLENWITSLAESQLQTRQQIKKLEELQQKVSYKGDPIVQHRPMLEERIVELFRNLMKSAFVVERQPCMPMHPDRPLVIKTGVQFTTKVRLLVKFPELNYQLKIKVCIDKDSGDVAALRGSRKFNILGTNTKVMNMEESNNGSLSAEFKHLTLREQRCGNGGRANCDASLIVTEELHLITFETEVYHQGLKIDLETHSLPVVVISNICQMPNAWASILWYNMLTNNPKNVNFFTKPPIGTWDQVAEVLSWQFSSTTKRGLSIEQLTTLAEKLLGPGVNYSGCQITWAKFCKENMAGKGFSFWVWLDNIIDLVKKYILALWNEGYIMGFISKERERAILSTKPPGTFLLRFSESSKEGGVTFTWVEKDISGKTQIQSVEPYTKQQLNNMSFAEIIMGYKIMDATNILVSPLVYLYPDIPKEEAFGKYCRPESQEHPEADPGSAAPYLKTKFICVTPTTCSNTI

SMILES | IC50 [1] [µM] | IC50 [2] [µM]
CS(=O)(=O)CC1CN(C(=O)[C@@H]2CC[C@@H]3C[C@H]4C[C@H]4C[C@H](NC(=O)c4cc5cc(C(F)P(=O)(O)O)ccc5s4)C(=O)N32)C1 (stereo partly drawn) [Example 333, (fluoro(2-(((3S,6S,7aS,8aR,9aR)-3-(3-((methylsulfonyl)methyl)azetidine-1-carbonyl)-5-oxodecahydro-1H-cyclopropa[d]pyrrolo[1,2-a]azocin-6-yl)carbamoyl)benzo[b]thiophen-5-yl)methyl)phosphonic acid] | < 0.1 | 3 to 30
O=C(N[C@H]1C[C@@H]2C[C@@H]2C[C@H]2CC[C@@H](C(=O)N3CC(Oc4cnccn4)C3)N2C1=O)c1cc2cc(CP(=O)(O)O)ccc2s1 [Example 334, ((2-(((3S,6S,7aS,8aR,9aR)-5-oxo-3-(3-(pyrazin-2-yloxy)azetidine-1-carbonyl)decahydro-1H-cyclopropa[d]pyrrolo[1,2-a]azocin-6-yl)carbamoyl)benzo[b]thiophen-5-yl)methyl)phosphonic acid] | 1 to 10 | > 30
Cn1cc(OC2CN(C(=O)[C@@H]3CC[C@@H]4C[C@H]5C[C@H]5C[C@H](NC(=O)c5cc6cc(CP(=O)(O)O)ccc6s5)C(=O)N43)C2)cn1 [Example 335, ((2-(((3S,6S,7aS,8aR,9aR)-3-(3-((1-methyl-1H-pyrazol-4-yl)oxy)azetidine-1-carbonyl)-5-oxodecahydro-1H-cyclopropa[d]pyrrolo[1,2-a]azocin-6-yl)carbamoyl)benzo[b]thiophen-5-yl)methyl)phosphonic acid] | 1 to 10 | > 30
COc1cc(C2CN(C(=O)[C@@H]3CC[C@@H]4C[C@H]5C[C@H]5C[C@H](NC(=O)c5cc6cc(C(F)P(=O)(O)O)ccc6s5)C(=O)N43)C2)on1 (stereo partly drawn) [Example 336, (fluoro(2-(((3S,6S,7aS,8aR,9aR)-3-(3-(3-methoxyisoxazol-5-yl)azetidine-1-carbonyl)-5-oxodecahydro-1H-cyclopropa[d]pyrrolo[1,2-a]azocin-6-yl)carbamoyl)benzo[b]thiophen-5-yl)methyl)phosphonic acid] | 0.1 to 1 | 3 to 30
Cc1cc(C2CN(C(=O)[C@@H]3CC[C@@H]4C[C@H]5C[C@H]5C[C@H](NC(=O)c5cc6cc(C(F)P(=O)(O)O)ccc6s5)C(=O)N43)C2)no1 (stereo partly drawn) [Example 337, (fluoro(2-(((3S,6S,7aS,8aR,9aR)-3-(3-(5-methylisoxazol-3-yl)azetidine-1-carbonyl)-5-oxodecahydro-1H-cyclopropa[d]pyrrolo[1,2-a]azocin-6-yl)carbamoyl)benzo[b]thiophen-5-yl)methyl)phosphonic acid] | < 0.1 | 3 to 30
O=C(N[C@H]1C[C@@H]2C[C@@H]2C[C@H]2CC[C@@H](C(=O)N[C@H]3CN(c4ncc[nH]4)C[C@@H]3F)N2C1=O)c1cc2cc(C(F)P(=O)(O)O)ccc2s1 (stereo partly drawn) [Example 339, (fluoro(2-(((3S,6S,7aS,8aR,9aR)-3-(((3S,4S)-4-fluoro-1-(1H-imidazol-2-yl)pyrrolidin-3-yl)carbamoyl)-5-oxodecahydro-1H-cyclopropa[d]pyrrolo[1,2-a]azocin-6-yl)carbamoyl)benzo[b]thiophen-5-yl)methyl)phosphonic acid] | < 0.1 | 0.3 to 3
NC(=O)N1C[C@H](NC(=O)[C@@H]2CC[C@@H]3C[C@H]4C[C@H]4C[C@H](NC(=O)c4cc5cc(C(F)P(=O)(O)O)ccc5s4)C(=O)N32)C(F)(F)C1 (stereo partly drawn) [Example 340, ((2-(((3S,6S,7aS,8aR,9aR)-3-(((S)-1-carbamoyl-4,4-difluoropyrrolidin-3-yl)carbamoyl)-5-oxodecahydro-1H-cyclopropa[d]pyrrolo[1,2-a]azocin-6-yl)carbamoyl)benzo[b]thiophen-5-yl)fluoromethyl)phosphonic acid] | < 0.1 | 3 to 30
CS(=N)(=O)CC1CN(C(=O)[C@@H]2CC[C@@H]3C[C@H]4C[C@H]4C[C@H](NC(=O)c4cc5cc(C(F)P(=O)(O)O)ccc5s4)C(=O)N32)C1 (stereo partly drawn) [Example 341, (fluoro(2-(((3S,6S,7aS,8aR,9aR)-3-(3-((S-methylsulfonimidoyl)methyl)azetidine-1-carbonyl)-5-oxodecahydro-1H-cyclopropa[d]pyrrolo[1,2-a]azocin-6-yl)carbamoyl)benzo[b]thiophen-5-yl)methyl)phosphonic acid] | < 0.1 | 3 to 30
O=C(N[C@H]1C[C@@H]2C[C@@H]2C[C@H]2CC[C@@H](C(=O)N3CC(Oc4ncccn4)C3)N2C1=O)c1cc2cc(CP(=O)(O)O)ccc2s1 [Example 342, ((2-(((3S,6S,7aS,8aR,9aR)-5-oxo-3-(3-(pyrimidin-2-yloxy)azetidine-1-carbonyl)decahydro-1H-cyclopropa[d]pyrrolo[1,2-a]azocin-6-yl)carbamoyl)benzo[b]thiophen-5-yl)methyl)phosphonic acid] | 1 to 10 | > 30
CCc1ccncc1C1CN(C(=O)[C@@H]2CC[C@@H]3C[C@@H]4C[C@@H]4C[C@H](NC(=O)c4cc5cc(CP(=O)(O)O)ccc5s4)C(=O)N32)C1 [Example 343, ((2-(((3S,6S,7aR,8aS,9aR)-3-(3-(4-ethylpyridin-3-yl)azetidine-1-carbonyl)-5-oxodecahydro-1H-cyclopropa[d]pyrrolo[1,2-a]azocin-6-yl)carbamoyl)benzo[b]thiophen-5-yl)methyl)phosphonic acid] | < 0.1 | > 30
O=C(N[C@H]1C[C@@H]2C[C@@H]2C[C@H]2CC[C@@H](C(=O)N[C@H]3CN(c4nc[nH]n4)C[C@@H]3F)N2C1=O)c1cc2cc(C(F)P(=O)(O)O)ccc2s1 (stereo partly drawn) [Example 347, (fluoro(2-(((3S,6S,7aS,8aR,9aR)-3-(((3S,4S)-4-fluoro-1-(1H-1,2,4-triazol-3-yl)pyrrolidin-3-yl)carbamoyl)-5-oxodecahydro-1H-cyclopropa[d]pyrrolo[1,2-a]azocin-6-yl)carbamoyl)benzo[b]thiophen-5-yl)methyl)phosphonic acid] | 0.1 to 1 | 3 to 30
Cc1cn(C)c(N2C[C@H](NC(=O)[C@@H]3CC[C@@H]4C[C@H]5C[C@H]5C[C@H](NC(=O)c5cc6cc(C(F)P(=O)(O)O)ccc6s5)C(=O)N43)[C@@H](F)C2)n1 (stereo partly drawn) [Example 348, ((2-(((3S,6S,7aS,8aR,9aR)-3-(((3S,4S)-1-(1,4-dimethyl-1H-imidazol-2-yl)-4-fluoropyrrolidin-3-yl)carbamoyl)-5-oxodecahydro-1H-cyclopropa[d]pyrrolo[1,2-a]azocin-6-yl)carbamoyl)benzo[b]thiophen-5-yl)fluoromethyl)phosphonic acid] | < 0.1 | 3 to 30
O=C(N[C@H]1C[C@@H]2C[C@@H]2C[C@H]2CC[C@@H](C(=O)N3CC(Cc4cccc(F)c4)C3)N2C1=O)c1cc2cc(CP(=O)(O)O)ccc2s1 [Example 349, ((2-(((3S,6S,7aS,8aR,9aR)-3-(3-(3-fluorobenzyl)azetidine-1-carbonyl)-5-oxodecahydro-1H-cyclopropa[d]pyrrolo[1,2-a]azocin-6-yl)carbamoyl)benzo[b]thiophen-5-yl)methyl)phosphonic acid] | 0.1 to 1 | 3 to 30
O=C(N[C@H]1C[C@@H]2C[C@@H]2C[C@H]2CC[C@@H](C(=O)N3CC(Oc4cccnc4)C3)N2C1=O)c1cc2cc(CP(=O)(O)O)ccc2s1 [Example 350, ((2-(((3S,6S,7aS,8aR,9aR)-5-oxo-3-(3-(pyridin-3-yloxy)azetidine-1-carbonyl)decahydro-1H-cyclopropa[d]pyrrolo[1,2-a]azocin-6-yl)carbamoyl)benzo[b]thiophen-5-yl)methyl)phosphonic acid] | 0.1 to 1 | 3 to 30
O=C(N[C@H]1C[C@@H]2C[C@@H]2C[C@H]2CC[C@@H](C(=O)N3CC(Oc4ccccn4)C3)N2C1=O)c1cc2cc(CP(=O)(O)O)ccc2s1 [Example 351, ((2-(((3S,6S,7aS,8aR,9aR)-5-oxo-3-(3-(pyridin-2-yloxy)azetidine-1-carbonyl)decahydro-1H-cyclopropa[d]pyrrolo[1,2-a]azocin-6-yl)carbamoyl)benzo[b]thiophen-5-yl)methyl)phosphonic acid] | 0.1 to 1 | 3 to 30
O=C(N[C@H]1C[C@@H]2C[C@@H]2C[C@H]2CC[C@@H](C(=O)N3CC(Cc4ccncc4)C3)N2C1=O)c1cc2cc(CP(=O)(O)O)ccc2s1 [Example 352, ((2-(((3S,6S,7aS,8aR,9aR)-5-oxo-3-(3-(pyridin-4-ylmethyl)azetidine-1-carbonyl)decahydro-1H-cyclopropa[d]pyrrolo[1,2-a]azocin-6-yl)carbamoyl)benzo[b]thiophen-5-yl)methyl)phosphonic acid] | 0.1 to 1 | > 30

From US20250215030A1, “STAT MODULATORS AND USES THEREOF” (Recludix Pharma, Inc., priority 2022, published 2025)
